From patent US12280141B2, “Liquid depot for non-invasive sustained delivery of agents to the eye” (CHIBI, INC., priority 2018, dated 2025)
Values joined by “and” are separate entries in the source; they are usually repeats but may differ in a detail not shown here. Identical values can stand only once. “Also recorded” adds a separate entry of the source.

Tests used:
[1] = Dexamethasone level in anterior chamber after 50 μL depot (GLP study); type: in vivo, New Zealand White (NZW) rabbits; conditions: both sexes, New Zealand White, rabbit, topical
Protocol: In a good laboratory practices (GLP) study, depots of 50 μL were instilled into each eye of New Zealand White (NZW) rabbits (either sex, 3.5-4 kilo), and the anterior chamber tapped subsequently and assayed by LCMS.

[2] = Dexamethasone in eye tissues and fluids after one 25 μL depot instillation; conditions: for concentration at 3 day / concentration at 8 day / concentration at 8 h / concentration at 24 h / concentration at 14 day / concentration at 21 day: female, New Zealand White, rabbit, topical, 25 μL, Dexamethasone; for concentration at 3 day: Day 3; for concentration at 8 day: Day 8; for concentration at 24 h: Hr 24
[3] = In vitro release of gatifloxacin from liquid depot, samples Gati-90A to F; type: physicochemical; conditions: for Gatifloxacin cumulative % released, Avg: Avg of 90-A to 90-F
Protocol: The in vitro sustained release study of gatifloxacin was carried out using a Cabone ring (Wilton Brands LLC, Woodridge, Ill. 60517) of 12.7 mm. […] [At each time point, 20 ml from each of the six samples was withdrawn for sampling and replaced with 20 mL saline. The amount of gatifloxacin released was determined by UPLC. The release profile of gatifloxacin-containing liquid depot formulation is shown in Table 15, Table 16, and FIG. 14; gatifloxacin was released for at least 24 hours.

[4] = In vitro release of prednisolone from liquid depot, samples 5A to 5F; type: physicochemical
Protocol: Six samples, 5A to 5F, each weighing at 48.2 mg, 48.5 mg, 48.1 mg, 49 mg, 51.7 mg, and 49.2 mg, respectively (average weight=49.1 mg; SD=1.34; % RSD=2.7) were incubated in 50 ml saline at 40° C. At each time point, 25 ml from each of the six samples was withdrawn for sampling and replaced with 25 ml saline.

[5] = single 50 μL instillation
[6] = Vitamin E acetate in rabbit aqueous humor samples; type: in vivo; conditions: days 1, 4, 7, 12; quantification limit 1.0 ng/mL
[7] = Diclofenac in tear samples after 50 μL liquid depot; type: in vivo, NZW rabbits; conditions: one-time application of 50 μL
Protocol: A formulation of the NSAID diclofenac was prepared by thoroughly mixing 10% diclofenac acid in a 90% liquid depot mixture of 80:20 tocopheryl acetate:Miglyol®. A one-time application of 50 μL of this formulation was instilled into the eyes of NZW rabbits, and then tear samples were collected and analyzed as described herein.

[8] = aqueous humor, Aqueous Humor Average (±SD), one 25 μL instillation of 10% dexamethasone depot
[9] = conjunctiva, Conjunctiva Average (±SD), one 25 μL instillation
[10] = cornea, Cornea Average (±SD), one 25 μL instillation
[11] = iris/ciliary body, Iris/Ciliary Body Average (±SD), one 25 μL instillation
[12] = one instillation of the liquid depot

## C[C@@H]1C[C@H]2[C@@H]3CCC4=CC(=O)C=C[C@]4(C)[C@@]3(F)[C@@H](O)C[C@]2(C)[C@@]1(O)C(=O)CO [Dexamethasone, dexamethasone]
[1]; Day 1, 50 μL depot 10:72:18
  concentration at 1 day: 6.68 ng/mL
[1]; Day 3, 50 μL depot 10:72:18
  concentration at 3 day: 6.48 ng/mL
[1]; Day 5, 50 μL depot 10:72:18
  concentration at 5 day: 4.14 ng/mL
[1]; Day 7, 50 μL depot 10:72:18
  concentration at 7 day: 4.08 ng/mL
[1]; Day 10, 50 μL depot 10:72:18
  concentration at 10 day: 3.2 ng/mL
[2]; Day 14, per eye, one 25 μL instillation
  Dexamethasone, Iris/Ciliary Body Tissue: 1.21 ng/g and 2.00 ng/g
[2]; Day 14, per eye, one 25 μL instillation, LOQ 0.2 ng/mL
  Dexamethasone, Iris/Ciliary Body Homog.: 0.241 ng/mL and 0.399 ng/mL
[2]; Day 21, per eye, one 25 μL instillation of 10% dexamethasone depot, LOQ 0.5 ng/mL
  Dexamethasone, Aqueous Humor Conc.: BLOQ
[2]; Day 21, per eye, one 25 μL instillation, LOQ 0.2 ng/mL
  Dexamethasone, Iris/Ciliary Body Homog.: BLOQ
[2]; Hr 8, per eye, one 25 μL instillation
  Dexamethasone, Iris/Ciliary Body Tissue: 83.0 ng/g and 86.0 ng/g and 150 ng/g and 113 ng/g and 157 ng/g
[2]; Hr 8, per eye, one 25 μL instillation, LOQ 0.2 ng/mL
  Dexamethasone, Iris/Ciliary Body Homog.: 16.6 ng/mL and 17.2 ng/mL and 30.0 ng/mL and 22.5 ng/mL and 31.4 ng/mL
[2]; [8]
  concentration at 3 day: 2.5 ng/mL
  concentration at 8 day: 7.53 ng/mL
  concentration at 24 h: 2.47 ng/mL
[2]; aqueous humor, Aqueous Humor Average (±SD), Hr 8, one 25 μL instillation of 10% dexamethasone depot
  concentration at 8 h: 44.8 ng/mL
[2]; aqueous humor, Aqueous Humor Conc., Day 14, per eye, one 25 μL instillation of 10% dexamethasone depot, LOQ 0.5 ng/mL
  concentration at 14 day: 0.677 ng/mL
[2]; [9]
  concentration at 3 day: 372 ng/g
  concentration at 8 day: 1630 ng/g
  concentration at 24 h: 598 ng/g
[2]; conjunctiva, Conjunctiva Average (±SD), Day 14, one 25 μL instillation
  concentration at 14 day: 53.8 ng/g
[2]; conjunctiva, Conjunctiva Average (±SD), Day 21, one 25 μL instillation
  concentration at 21 day: 28.2 ng/g
[2]; conjunctiva, Conjunctiva Average (±SD), Hr 8, one 25 μL instillation
  concentration at 8 h: 1660 ng/g
[2]; [10]
  concentration at 3 day: 176 ng/g
  concentration at 8 day: 284 ng/g
  concentration at 24 h: 260 ng/g
[2]; cornea, Cornea Average (±SD), Day 14, one 25 μL instillation
  concentration at 14 day: 12.2 ng/g
[2]; cornea, Cornea Average (±SD), Day 21, one 25 μL instillation
  concentration at 21 day: 8.14 ng/g
[2]; cornea, Cornea Average (±SD), Hr 8, one 25 μL instillation
  concentration at 8 h: 560 ng/g
[2]; iris/ciliary body homogenate, Iris/Ciliary Body Homog., Day 14, per eye, one 25 μL instillation, LOQ 0.2 ng/mL
  concentration at 14 day: 0.239 ng/mL
[2]; iris/ciliary body homogenate, Iris/Ciliary Body Homog., Hr 8, per eye, one 25 μL instillation, LOQ 0.2 ng/mL
  concentration at 8 h: 30.2 ng/mL
[2]; [11]
  concentration at 3 day: 9.72 ng/g
  concentration at 8 day: 8.15 ng/g
  concentration at 24 h: 12.3 ng/g
[2]; iris/ciliary body, Iris/Ciliary Body Average (±SD), Day 14, one 25 μL instillation
  concentration at 14 day: 1.47 ng/g
[2]; iris/ciliary body, Iris/Ciliary Body Average (±SD), Day 21, one 25 μL instillation
  concentration at 21 day: 3.88 ng/g
[2]; iris/ciliary body, Iris/Ciliary Body Average (±SD), Hr 8, one 25 μL instillation
  concentration at 8 h: 123 ng/g
[2]; iris/ciliary body, Iris/Ciliary Body Tissue, Day 14, per eye, one 25 μL instillation
  concentration at 14 day: 1.2 ng/g
[2]; iris/ciliary body, Iris/Ciliary Body Tissue, Hr 8, per eye, one 25 μL instillation
  concentration at 8 h: 151 ng/g
[2]; [12]
  Time dexamethasone was in the aqueous humor: at least 8 days
  Time dexamethasone was in the conjunctiva, cornea, and iris/ciliary body: at least 21 days

## COc1c(N2CCNC(C)C2)c(F)cc2c(=O)c(C(=O)O)cn(C3CC3)c12 (stereo not shown) [Gatifloxacin, gatifloxacin]
[3]; 1 Hour
  Average concentration of gatifloxacin released: 38.9 µg/mL
  Gatifloxacin cumulative % released, Avg: 32.3%
[3]; 3 Hours
  Average concentration of gatifloxacin released: 61.9 µg/mL
  Gatifloxacin cumulative % released, Avg: 67.5%
[3]; 24 Hours
  Average concentration of gatifloxacin released: 53.4 µg/mL
  Gatifloxacin cumulative % released, Avg: 86.2%
[3]; 40 mL saline at 40° C.
  Time gatifloxacin was released in vitro: at least 24 hours

## C[C@]12C=CC(=O)C=C1CC[C@@H]1[C@@H]2[C@@H](O)C[C@@]2(C)[C@H]1CC[C@]2(O)C(=O)CO [Prednisolone, prednisolone]
[4]; Day 0, Avg of 5A to 5F
  Prednisolone cumulative % released, Avg: 0%
[4]; Day 1
  Average concentration of prednisolone released: 32.6 µg/mL
[4]; Day 1, Avg of 5A to 5F
  Amount of prednisolone released, Avg: 1630.3 µg
[4]; Day 2
  Average concentration of prednisolone released: 39.4 µg/mL
[4]; Day 2, Avg of 5A to 5F
  Amount of prednisolone released, Avg: 1153.1 µg
[4]; Day 3
  Average concentration of prednisolone released: 38.1 µg/mL
[4]; Day 3, Avg of 5A to 5F
  Amount of prednisolone released, Avg: 922.4 µg
[4]; Day 4
  Average concentration of prednisolone released: 30.6 µg/mL
[4]; Day 4, Avg of 5A to 5F
  Amount of prednisolone released, Avg: 577.5 µg
[4]; Day 5
  Average concentration of prednisolone released: 19.6 µg/mL
[4]; Day 5, Avg of 5A to 5F
  Amount of prednisolone released, Avg: 72.3 µg

## CC(=O)Oc1c(C)c(C)c2c(c1C)CC[C@@](C)(CCC[C@H](C)CCC[C@H](C)CCCC(C)C)O2 [Vitamin E acetate, [(2R)-2,5,7,8-tetramethyl-2-[(4R,8R)-4,8,12-trimethyltridecyl]chroman-6-yl]acetate]
[5]
  Time vitamin E acetate was present in the tears of rabbit eyes: at least 12 days
[6]
  Vitamin E acetate in aqueous humor samples: not observed; also recorded: No detectable

## O=C(O)Cc1ccccc1Nc1c(Cl)cccc1Cl [diclofenac, diclofenac acid]
[7]
  Time diclofenac was detected in the rabbit tear film: ≥ 7 days
